Results from patent US10369134B2, “Nonracemic mixtures and uses thereof” (Sunovion Pharmaceuticals Inc., priority 2017, dated 2019).
≈ marks a conversion by molar mass, not a printed value. Read-outs that look alike come from different tables or passages of the source. One block for each compound: values may come before it.

Experiments:
[1] = Dynamic vapor sorption (DVS) water sorption isotherm; type: physicochemical; details: for maximum mass change in water sorption isotherms: 25° C., scanned over 0 to 95% relative humidity; for Change Mass: FIG. 8D
Source text: In various embodiments, the hygroscopicity of crystal forms of racemic amisulpride, enantiomeric amisulpride, and enantiomeric amisulpride solvates are characterized by dynamic vapor sorption (DVS). DVS is a gravimetric technique that measures how much of a solvent is absorbed by a sample by varying the vapor concentration surrounding the sample (e.g., relative humidity) and measuring the change in mass. In the present application, DVS is used to generate water sorption isotherms, which represent the equilibrium amount of vapor sorbed as a function of steady state relative vapor pressure at a constant temperature.

[2] = Solubility of crystal forms; type: physicochemical; details: thermodynamic from solid
Source text: In various embodiments, the compositions of the present inventions use new crystalline forms of enantiomeric amisulpride, Form A and Form A′. […] It is to be understood that upon dissolution of the compound it is no longer of a crystalline form, thus one of ordinary skill in the art will understand that the specific rotation in Table 7 refers to that of the non-crystalline compound.

[3] = cited from earlier work
rat = test: Forced Swim test; type: in vivo
Method: The Forced Swim test (FST) is an indicator of the antidepressant-like activity of a test compound. The rat will swim before “giving up” and becoming immobile. A compound with antidepressant-like activity will decrease the time the rat is immobile.
The animals (n=90) were divided into five groups. […] In the training session, each animal was gently placed into the plastic cylinder containing 5.8 L of water set at 25±1° C. Fifteen minutes after the beginning of the training session, the animal was removed from the water. The dosing solutions were administered 15 minutes after finishing of the training.
The swim test was performed for 5 minutes in the same manner as the training session. In the swim test, the behavior of each animal was horizontally recorded using a video camera. After the swim test, animals were immediately sacrificed by inhalation of carbon dioxide.
The swim movies were handled in a blind manner to ensure that the person who measured the immobility time had no information on the treatment. An animal was judged to be immobile whenever it remained floating in the water without moving its body or forepaws except for the slight movement to maintain its posture. The total time for which the animal remained immobile was defined as the immobility time. An observer blinded to the doses measured the immobility times. The immobility time of each animal was measured to one decimal place and rounded to a whole number. Immobility time was expressed in units of seconds. In each series the means of immobility time were calculated and rounded to a whole number using. The mean and standard error (SE) for each group were calculated using the data obtained from three experimental series and rounded to a whole number. All results are represented as the mean±SE.
The data of imipramine were analyzed using t-test with a two-sided significance level of 5% (p<0.05).

[4] = Plasma (S)-amisulpride levels during the PET study; type: in vivo; details: human, single oral solution 25-200 mg
Method: Plasma samples were collected throughout the course of the PET scan session and were analyzed for (S)-amisulpride levels.

[5] = 0.05 M acetate buffer, aqueous buffer, solution pH 4.5, read-out: Solubility, 0.05 M Acetate Buffer
[6] = acetone/MtBE 1:4, organic solvent or mixture, read-out: Solubility, Acetone/MtBE 1:4
[7] = acetone/MtBE 1:9, organic solvent or mixture, read-out: Solubility, Acetone/MtBE 1:9
[8] = ethyl acetate, organic solvent or mixture, read-out: Solubility, Ethyl Acetate
[9] = simulated gastric fluid (no enzyme), pH 1.1, simulated gastric fluid, pH adjusted to 1.1 (Form A), 1.2 (Form A′), read-out: Solubility, Simulated Gastric Fluid (no enzyme)
[10] = simulated intestinal fluid (no enzyme), pH 6.7, fassgf or other biorelevant, pH adjusted to 6.7 (Form A), 6.9 (Form A′), read-out: Solubility, Simulated Intestinal Fluid (no enzyme)
[11] = water, pH 10.2, water, read-out: Solubility, Water

Compound: CCN1CCC[C@H]1CNC(=O)c1cc(S(=O)(=O)CC)c(N)cc1OC [(S)-amisulpride Form A′, S-4-Amino-N-[(1-ethyl-2-pyrrolidinyl)methyl]-5-(ethylsulfonyl)-2-methoxybenzamide]
maximum mass change in water sorption isotherms [1]: 0.35%
Change Mass ([1]; 19.077 mg, relative humidity 0 %, rising steps): 0.00 wt %
Change Mass ([1]; relative humidity 1 %, falling steps): −0.01 wt %
Change Mass ([1]; relative humidity 10 %, falling steps): 0.01 wt %
Change Mass ([1]; relative humidity 10 %, rising steps): 0.03 wt %
Change Mass ([1]; relative humidity 20 %, falling steps): 0.03 wt %
Change Mass ([1]; relative humidity 20 %, rising steps): 0.05 wt %
Change Mass ([1]; relative humidity 30 %, falling steps): 0.05 wt %
Change Mass ([1]; relative humidity 30 %, rising steps): 0.07 wt %
Change Mass ([1]; relative humidity 40 %, falling steps): 0.07 wt %
Change Mass ([1]; relative humidity 40 %, rising steps): 0.09 wt %
Change Mass ([1]; relative humidity 50 %, falling steps): 0.08 wt %
Change Mass ([1]; relative humidity 50 %, rising steps): 0.11 wt %
Change Mass ([1]; relative humidity 60 %, falling steps): 0.11 wt %
Change Mass ([1]; relative humidity 60 %, rising steps): 0.13 wt %
Change Mass ([1]; relative humidity 70 %, falling steps): 0.14 wt %
Change Mass ([1]; relative humidity 70 %, rising steps): 0.16 wt %
Change Mass ([1]; relative humidity 75 %, falling steps): 0.16 wt %
Change Mass ([1]; relative humidity 75 %, rising steps): 0.18 wt %
Change Mass ([1]; relative humidity 80 %, falling steps): 0.17 wt %
Change Mass ([1]; relative humidity 80 %, rising steps): 0.19 wt %
Change Mass ([1]; relative humidity 90 %, falling steps): 0.28 wt %
Change Mass ([1]; relative humidity 90 %, rising steps): 0.25 wt %
Change Mass ([1]; relative humidity 95 %, first step at 95 %): 0.34 wt %
Change Mass ([1]; relative humidity 95 %, second step at 95 %): 0.35 wt %
solubility [2, 5]: > 100000 µg/mL
solubility [2, 6]: 8000 µg/mL (≈ 21.7 mM)
solubility [2, 7]: 2000 µg/mL (≈ 5.41 mM)
solubility [2, 8]: 3900 µg/mL (≈ 10.6 mM)
solubility [2, 9]: > 100000 µg/mL
solubility [2, 10]: > 100000 µg/mL
solubility [2, 11]: 2000 µg/mL (≈ 5.41 mM)

Compound: CCN1CCCC1CNC(=O)c1cc(S(=O)(=O)CC)c(N)cc1OC (racemic) [racemic amisulpride, 4-amino-N-[(1-ethylpyrrolidin-2-yl)methyl]-5-ethylsulfonyl-2-methoxy-benzamide]
terminal plasma half-life ([3]; biphasic elimination, Coukell et al. 1996): approximately 12 hours

Compound: CN(C)CCCN1c2ccccc2CCc2ccccc21 [Imipramine, imipramine]
immobility time (rat; 10 mg/kg i.p. at 24, 5 and 1 h before swim test, mean ± SE, vehicle 168±12): 105 ± 15 s
shortening of immobility time (rat; 10 mg/kg i.p., in all series, vs vehicle): more than 20%

Compound: OCCOCCN1CCN(C2=Nc3ccccc3Sc3ccccc32)CC1 [quetiapine]
elimination half-life ([3]; literature (Delaney and Nemeroff 2001)): about 7 hours

More lines, now with the values ahead:

maximum mass change in water sorption isotherms [1]: 52±9%
Compound: CCN1CCCC1CNC(=O)c1cc(S(=O)(=O)CC)c(N)cc1OC.O=C(O)C(O)C(O)C(=O)O [(S)-amisulpride D-tartrate, reference compound]

time frame in which plasma concentrations peaked [4]: approximately 3 hour
Compound: CCN1CCC[C@H]1CNC(=O)c1cc(S(=O)(=O)CC)c(N)cc1OC [(S)-amisulpride, S-4-Amino-N-[(1-ethyl-2-pyrrolidinyl)methyl]-5-(ethylsulfonyl)-2-methoxybenzamide]

solubility [2, 5]: > 100000 µg/mL
solubility [2, 6]: 8000 µg/mL (≈ 21.7 mM)
solubility [2, 7]: 2000 µg/mL (≈ 5.41 mM)
solubility [2, 8]: 3900 µg/mL (≈ 10.6 mM)
solubility [2, 9]: > 100000 µg/mL
solubility [2, 10]: > 100000 µg/mL
solubility [2, 11]: 2000 µg/mL (≈ 5.41 mM)
Compound: CCN1CCC[C@@H]1CNC(=O)c1cc(S(=O)(=O)CC)c(N)cc1OC [(R)-amisulpride Form A, R-4-Amino-N-[(1-ethyl-2-pyrrolidinyl)methyl]-5-(ethylsulfonyl)-2-methoxybenzamide]
